Values quoted from earlier work in patent publication US20040197429A1, “Selective COX-2 inhibition from plant extracts” (Pharmacia Corporation, priority 2000, published 2004).

Tested on: COX-1 and COX-2
Details: background

Structure (SMILES): CC(=O)Oc1ccccc1C(=O)O [aspirin]
- effectiveness inactivating COX-1 as opposed to COX-2: 10 to 100 times
